Measured values as given in patent US9670549B2, “Gene expression signatures of neoplasm responsiveness to therapy” (The United States of America, as represented by the …, priority 2011, dated 2017).

Legend:
[1] = test system: cleaved PARP, BCL-xL, Survivin; assay: Western blot of apoptosis proteins (U266, L363 lysates); type: cell-based, human; conditions: U266 or L363 lysates, 48 hours
Method: In sequential experiments, the first agent listed was added 24 hours prior to the addition of the second agent.
Western blot of control, single agent, and combination treated (D) L363 or (E) U266 cells at 48 hours.

[2] = molecular target: HDAC1 (Homo sapiens, UniProt Q13547); conditions: cited from earlier work
[3] = molecular target: HDAC2 (Homo sapiens, UniProt Q92769); conditions: cited from earlier work
[4] = test system: L363 cells; assay: L363 cell viability after triapine and/or sirolimus; conditions: L363, 48 hour treatment
Method: (§1) L363 cell viability after 48 hour treatment with triapine and/or sirolimus. Significance between treatments was determined by repeated measures ANOVA with the Bonferroni correction.

[5] = test system: RRM2, γH2AX; assay: Western blot of L363 lysates for RRM2 and DNA damage marker; conditions: L363, 48 hours; sirolimus 10 nM, entinostat 0.5 μM, Triapine 1 μM
Method: as §1

Chain of HDAC1 (Q13547 whole entry): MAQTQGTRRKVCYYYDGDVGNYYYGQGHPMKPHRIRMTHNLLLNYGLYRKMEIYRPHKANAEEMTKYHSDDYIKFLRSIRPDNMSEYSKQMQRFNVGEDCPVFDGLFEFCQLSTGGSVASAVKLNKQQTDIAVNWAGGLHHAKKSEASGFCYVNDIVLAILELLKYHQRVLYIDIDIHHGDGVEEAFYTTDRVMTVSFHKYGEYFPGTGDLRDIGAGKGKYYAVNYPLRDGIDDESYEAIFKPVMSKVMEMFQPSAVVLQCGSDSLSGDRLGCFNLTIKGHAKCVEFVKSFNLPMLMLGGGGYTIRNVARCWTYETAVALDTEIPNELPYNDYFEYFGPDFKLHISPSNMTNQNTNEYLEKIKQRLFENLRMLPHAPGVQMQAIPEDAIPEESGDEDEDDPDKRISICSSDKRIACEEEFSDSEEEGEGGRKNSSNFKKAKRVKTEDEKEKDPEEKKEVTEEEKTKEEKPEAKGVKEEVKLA
Chain of HDAC2 (Q92769 whole entry): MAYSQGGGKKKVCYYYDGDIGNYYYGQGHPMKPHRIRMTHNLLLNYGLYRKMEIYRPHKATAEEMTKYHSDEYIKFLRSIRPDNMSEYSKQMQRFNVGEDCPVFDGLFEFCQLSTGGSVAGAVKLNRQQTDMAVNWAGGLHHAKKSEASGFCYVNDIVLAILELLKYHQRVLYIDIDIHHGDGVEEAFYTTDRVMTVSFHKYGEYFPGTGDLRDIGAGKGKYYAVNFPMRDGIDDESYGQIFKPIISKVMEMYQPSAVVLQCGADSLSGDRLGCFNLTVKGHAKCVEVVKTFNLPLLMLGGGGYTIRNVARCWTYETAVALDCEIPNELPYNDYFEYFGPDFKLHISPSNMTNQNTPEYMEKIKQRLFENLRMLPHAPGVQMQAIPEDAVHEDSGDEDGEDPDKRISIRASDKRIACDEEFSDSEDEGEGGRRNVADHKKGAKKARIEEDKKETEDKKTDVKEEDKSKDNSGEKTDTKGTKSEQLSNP

Row | Structure (SMILES) | PARP cleavage [1] | activity against HDAC1 [2] | affinity for HDAC1 [2] | activity for HDAC2 [3] | MM cell viability [4] | DNA damage marker γH2AX [5]
1 | Nc1ccccc1NC(=O)c1ccc(CNC(=O)OCc2cccnc2)cc1 [entinostat] | observed | strong activity | high affinity | weak activity | – | –
2 | NC(=S)N/N=C/c1ncccc1N [triapine] | – | – | – | – | inhibited MM cell viability | increased yH2AX
